Test results taken from patent publication US12303587B2, “Extract of Moringa peregrina seed cake, method for obtaining same and use thereof in cosmetic or nutricosmetic compositions” (AGENCE FRANCAISE POUR LE DEVELOPPEMENT D'AL ULA, priority 2020, dated 2025).
In brackets after ≈: the same amount, converted by molar mass.

What was measured:
[1] = system: mouse embryo fibroblasts of the Balb/c 3T3 clone 31 line; assay: In vitro phototoxicity test 3T3 NRU; assay type: cell-based; details: BALB/c3T3, light or radiation study
Method: The cytotoxicity is evaluated by determining cell viability using a vital stain: neutral red, 24 hours after treatment with the reference elements and the extract of M. peregrina according to the invention with or without UVA irradiation. […] The positive control is a chlorpromazine solution (CAS No.: 69-09-0). The negative control is a diluent for the test extract and for the reference (buffered saline solution±1% solvent). The peptide hydrolyzate was tested at eight concentrations in at least four culture wells per concentration studied, in the presence or absence of UVA. […]
The seeded plates were incubated for 24 hours at 37° C. and 5% CO2. […] The pH of the highest concentration was measured; it was between 6.5 and 7.8. […] The spectral irradiance of the test device was measured in the wavelength range from 250 to 700 nanometers with a calibrated spectroradiometer.
One of the two plates was irradiated with its cover on at room temperature, and the other plate was protected from UVA and was maintained at room temperature during the irradiation. […] The next day, the cell viability (growth, morphology, monolayer integrity) was evaluated by observations using a phase-contrast microscope. […] The absorbance values were measured at 450 nm.

[2] = system: DKK-1; assay: DKK-1 synthesis and release, ELISA; assay type: cell-based, human; details: tested at 100 nm; p<0.01
Method: The object of this study is to evaluate the effect of the compound known as “peregrina peptide hydrolyzate” on DKK-1 synthesis and release in a model composed of normal human fibroblasts in monolayer culture.
Protocol: Human fibroblast cells were obtained from a donor. To perform the experiments, the fibroblasts were grown as a monolayer culture until confluence was reached. 100 nM dexamethasone was used as a reference inducer of DKK-1 synthesis and release.
[…] were incubated for 48 hours in the absence (control) or presence of reference product or test product: Peregrina peptide hydrolyzate: 0.01%; 0.1% and 0.5% (v/v).
At the end of the incubation, the incubation media were removed to perform the DKK-1 release measurement.
The test compound “peregrina peptide hydrolyzate” was diluted directly in the incubation medium so as to reach the various concentrations described above.
At the end of the 48-hour incubation period, the DKK-1 released into the incubation media was quantified by means of a specific sensitive ELISA kit.
At the end of the incubation period, the proteins contained in the cell lyzates were quantified by means of a spectrocolorimetric method (Bradford method).
The results are expressed as ng DKK-1 per mg of protein (mean±S.D.).

Compound | IC50 ([1]; in the absence of UVA) [µg/mL] | IC50 ([1]; in the presence of UVA) [µg/mL] | increase of released DKK-1 relative to the control [2] [%]
CN(C)CCCN1c2ccccc2Sc2ccc(Cl)cc21 [Chlorpromazine, chlorpromazine] | 7 to 90 (≈ 22 to 282 µM) | 0.1 to 2 | –
C[C@@H]1C[C@H]2[C@@H]3CCC4=CC(=O)C=C[C@]4(C)[C@@]3(F)[C@@H](O)C[C@]2(C)[C@@]1(O)C(=O)CO [dexamethasone] | – | – | 181.8
